Structures can show the parent of a compound that is named as a salt.
These compounds were tested against T1, h-5-HT6 receptor (Homo sapiens, UniProt P50406) (assay: 5-HT6 receptor binding assay (displacement of [3H]-LSD)). Settings: membranes of HEK293 cells expressing h-5-HT6; 1 nM [3H]-LSD.
T1 construct: expressed in transfected cells; host or cells: HEK293
T1 sequence (P50406 whole entry): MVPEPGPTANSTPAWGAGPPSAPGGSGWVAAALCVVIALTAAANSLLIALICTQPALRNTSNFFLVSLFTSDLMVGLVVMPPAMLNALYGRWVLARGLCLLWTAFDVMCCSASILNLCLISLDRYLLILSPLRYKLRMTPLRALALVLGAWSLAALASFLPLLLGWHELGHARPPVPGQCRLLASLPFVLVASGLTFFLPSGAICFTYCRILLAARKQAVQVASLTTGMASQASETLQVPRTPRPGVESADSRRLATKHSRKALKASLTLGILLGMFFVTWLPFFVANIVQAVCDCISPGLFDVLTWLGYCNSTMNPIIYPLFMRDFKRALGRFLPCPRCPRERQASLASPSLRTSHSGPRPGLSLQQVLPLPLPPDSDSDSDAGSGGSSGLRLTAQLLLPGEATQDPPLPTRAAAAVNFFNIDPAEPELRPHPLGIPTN
Method: Displacement of radioligands binding to the following cloned human receptors
Cells from stable clonal cell lines expressing the corresponding receptor (5-HT6, α1-adrenergic, dopamine D2 or histamine H1 receptors) were washed with PBS (w/o Ca^++, Mg^++) and harvested in PBS with 0.02% EDTA. […] The pellets were stored at −80° C. until use. For membrane preparation, the thawed cell pellet was resuspended in ice-cold sucrose buffer (0.25 M sucrose, 10 mM Hepes (pH 7.4), 1 mM Phenylmethylsulfonyl fluoride (PMSF) in DMSO, 5 μg/ml Pepstatin-A, 3 mM EDTA, 0.025% Bacitracin) and homogenized with a Branson Sonifier W-250 (Settings: Timer 4; Output Control 3; Duty Cycle constant; 2 to 3 cycles). Cell disruption was checked with the aid of a microscope. […] The sucrose buffer supernatant was then centrifuged at 60.000 g for 1 h at 4° C. (Beckman Ultrazentrifuge XL 80). The pellet was resuspended in 30 ml ice-cold Tris buffer (20 mM TRIS (pH 7.4), 5 μg/ml Pepstatin A, 0.1 mM PMSF, 3 mM EDTA) by pipetting through a 10 ml serological pipet and centrifuged for 1 h at 4° C. at 60.000 g. A final resuspension was performed in a small volume of ice-cold Tris buffer (see above) by pressing through a serological pipet followed by ultrasonic treatment with a Branson Sonifier W-250 (Settings: Timer 1; Output Control 3; Duty Cycle constant; 1 cycle). Protein concentration was determined (BCA-Kit; Pierce) and aliquots stored at −80° C. or in liquid nitrogen for long-term storage.
All receptor binding experiments were carried out in the corresponding assay buffer in a total volume of 200 μl in the presence of various concentrations of test compound (10^−5 M to 10^−9 M, tenfold serial dilution, duplicate determinations). The assays were terminated by filtration on polyethylenimine (PEI 0.1% or 0.3%) presoaked Packard Unifilter Plates (GF/C or GF/B) with a Tomtec MachIII U 96 well-plate harvester. After the plates had been dried for 2 h at 55° C. in a drying chamber scintillation cocktail (BetaPlate Scint; PerkinElmer) was added. Radioactivity was measured in a Microbeta Trilux two hours after the addition of the scintillation mixture. Data derived from liquid scintillation counting were analysed by iterative non-linear regression analysis with the use of the Statistical Analysis System (SAS): a program similar to “LIGAND” as described by Munson and Rodbard (Analytical Biochemistry 107, 220-239 (1980). […]
Data derived from liquid scintillation counting were analyzed by iterative non-linear regression analysis with the use of the Statistical Analysis System (SAS): a program similar to “LIGAND” as described by Munson and Rodbard (Anal. Biochem. 1980, 107, 220-239). […] IC50, nH and Ki values were expressed as geometrical mean.
Work on `COc1ccc(NS(=O)(=O)c2cccc(OC(F)F)c2)cc1N1CCCNCC1` [Example 1, N-(3-[1,4]Diazepan-1-yl-4-methoxy-phenyl)-3-difluoromethoxy-benzenesulfonamide hydrochloride] yielded a Ki of under 10 nM. `COc1ccc(NS(=O)(=O)c2ccccc2OC(F)F)cc1N1CCCNCC1` [Example 3, N-(3-[1,4]Diazepan-1-yl-4-methoxy-phenyl)-2-difluoromethoxy-benzenesulfonamide hydrochloride] was tested, and the Ki was under 10 nM. Work on `Cc1ccc(NS(=O)(=O)c2cccc(OC(F)F)c2)cc1N1CCCNCC1` [Example 7, N-(3-[1,4]Diazepan-1-yl-4-methyl-phenyl)-3-difluoromethoxy-benzenesulfonamide hydrochloride] yielded a Ki of under 50 nM. Work on `Cc1ccc(NS(=O)(=O)c2ccccc2OC(F)F)cc1N1CCCN(C)CC1` [Example 8, 2-Difluoromethoxy-N-[4-methyl-3-(4-methyl-[1,4]diazepan-1-yl)-phenyl]-benzenesulfonamide hydrochloride] yielded a Ki of under 10 nM.
